Experimental findings from ChEMBL document CHEMBL1240296, “Pharmacological inhibitors of glycogen synthase kinase 3” (Trends Pharmacol Sci, 2004) are described below.

Test [1] deals with Cyclin-dependent kinase 2/cyclin A (Homo sapiens, UniProt P24941). The experiment in a line: (§1) Inhibition of CDK2/cyclinA at 10 mM. Format: protein-complex assay.
Test [2] addresses Cyclin-dependent kinase 1/cyclin B (Homo sapiens, UniProt P06493). Type of test: protein-complex assay.
Test [3] can be described thus: Inhibition of GSK3.
Test [4] deals with Glycogen synthase kinase-3 beta (Homo sapiens, UniProt P49841).
For test [5], the target named is Cyclin-dependent kinase 2/cyclin A (Homo sapiens) (UniProt P24941+P20248+P78396). The description is as §1. Format: protein-complex assay.
In test [6] the target is Glycogen synthase kinase-3 (Homo sapiens, UniProt P49840+P49841). Format: protein assay.
Test [7] addresses Glycogen synthase kinase-3 alpha (Homo sapiens, UniProt P49840).

Glycogen synthase kinase-3 beta, sequence (P49841 whole entry): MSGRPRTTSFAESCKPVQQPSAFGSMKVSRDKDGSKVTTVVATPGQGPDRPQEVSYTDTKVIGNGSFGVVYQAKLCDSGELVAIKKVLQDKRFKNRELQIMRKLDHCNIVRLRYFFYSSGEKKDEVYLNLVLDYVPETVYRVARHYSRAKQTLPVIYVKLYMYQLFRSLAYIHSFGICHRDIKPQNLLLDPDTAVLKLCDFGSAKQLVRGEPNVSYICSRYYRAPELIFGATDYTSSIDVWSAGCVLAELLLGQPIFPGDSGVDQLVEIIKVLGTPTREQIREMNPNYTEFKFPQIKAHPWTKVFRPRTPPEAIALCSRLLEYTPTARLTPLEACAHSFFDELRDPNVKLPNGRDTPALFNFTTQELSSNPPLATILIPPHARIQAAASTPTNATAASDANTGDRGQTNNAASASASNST
Glycogen synthase kinase-3 alpha, sequence (P49840 whole entry): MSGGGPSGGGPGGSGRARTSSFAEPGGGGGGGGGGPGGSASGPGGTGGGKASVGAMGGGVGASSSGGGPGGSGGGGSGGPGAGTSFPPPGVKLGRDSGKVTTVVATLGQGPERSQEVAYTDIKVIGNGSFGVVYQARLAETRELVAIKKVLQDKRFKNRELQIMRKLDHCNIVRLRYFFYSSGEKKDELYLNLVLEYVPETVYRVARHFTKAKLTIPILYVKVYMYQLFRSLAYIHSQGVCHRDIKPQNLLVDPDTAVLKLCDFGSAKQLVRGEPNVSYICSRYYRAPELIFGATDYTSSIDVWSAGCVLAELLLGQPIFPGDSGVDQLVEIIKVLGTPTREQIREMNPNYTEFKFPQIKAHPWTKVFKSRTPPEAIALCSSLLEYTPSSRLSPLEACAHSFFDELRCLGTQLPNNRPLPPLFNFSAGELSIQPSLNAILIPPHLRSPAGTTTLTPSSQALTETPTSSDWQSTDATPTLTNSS

In turn, `Nc1nonc1-n1nnc(-c2nnc(-c3ccncc3)[nH]2)c1CN1CCCCC1` showed an IC50 in test [1] greater than 250000 nM.
Turning to `Cn1sc(=O)n(Cc2ccccc2)c1=O`, in test [2], the half-maximal inhibitory concentration (IC50) was greater than 10000 nM.
`OCCCNc1cc(-c2ccnc(Nc3cccc(Cl)c3)n2)ccn1` displayed an IC50 in test [3] of 10 nM.
On to `NC1N=Nc2nc3ccccc3nc21` (configuration not stated), for which the IC50 in test [3] is 1000 nM; in test [2] it was 600 nM.
In turn, `O=C1NC(=O)C2=C1c1cn(c3ncccc13)CCOCCOCCOCCOCCn1cc2c2cccnc21` showed an IC50 in test [4] of 34 nM.
`COc1ccc2c(c1)/C(=C/c1cnc[nH]1)C(=O)N2` [SU-9516]: in test [3], the half-inhibitory concentration (IC50) was 330 nM.
For `CC(C)c1c(-c2ccc(Cl)cc2)[nH]c2nccnc12`, the IC50 in test [3] came out at 750 nM; in test [2], 850 nM.
Take `O=C1NC(=O)C(c2ccccc2[N+](=O)[O-])=C1Nc1ccc(O)c(Cl)c1`: the IC50 in test [2] came to 900 nM.
For the compound `O=C1NC(=O)C(c2cccc(Cl)c2)=C1Nc1ccc(Cl)c(C(=O)O)c1`, the IC50 in test [1] was greater than 10000 nM.
Compound `Cn1cc(C2=C(c3ccc(Cl)cc3Cl)C(=O)NC2=O)c2ccccc21` [SB-216763] showed an IC50 in test [2] of 550 nM.
Regarding `CN(C)CCC(=O)Nc1n[nH]c2nnc(-c3ccccc3)cc12`, in test [5], the inhibition worked out at 90%.
`CCCCc1c(-c2ccc(O)cc2)[nH]c2nccnc12` [ALOISINE A] came in with an IC50 in test [3] of 650 nM. This lies in the sub-micromolar range.
On to `CN1CCN(c2ccc(NCCNc3ccc([N+](=O)[O-])c(N)n3)nc2-c2ccc(Cl)cc2Cl)C(=O)C1`, for which the IC50 in test [6] stood at 4 nM. In other words, the single-digit nanomolar range.
Consider `CN(C)CCCn1cc(C2=C(c3c[nH]c4ccccc34)C(=O)NC2=O)c2ccccc21` [GF-109203], for which the half-inhibitory concentration (IC50) in test [4] stood at 190 nM; in test [2] it was 2300 nM.
Consider `O=Nc1c(-c2c(O)[nH]c3ccccc23)[nH]c2ccccc12` [INDIRUBIN-3-MONOXIME], for which, in test [3], 5 nM corresponded to half-maximal inhibition (IC50).
`O=C1NC(=O)C2=C1c1cn(c3ncccc13)CCCC1=CC=C(CCCn3cc2c2cccnc23)S1` gave a concentration for half-maximal inhibition (IC50) in test [4] of 36 nM.
In turn, `CN[C@@H]1C[C@H]2O[C@@](C)([C@@H]1OC)n1c3ccccc3c3c4c(c5c6ccccc6n2c5c31)C(=O)NC4` [STAUROSPORINE] yielded an IC50 in test [3] of 15 nM. This lies in the double-digit nanomolar range.
For `CN1CC[C@H](c2c(O)cc(O)c3c(=O)cc(-c4ccccc4Cl)oc23)[C@H](O)C1` [ALVOCIDIB], in test [3], the half-maximal inhibitory concentration (IC50) was 450 nM.
As for `COc1cccc(-n2ncc3c(N/N=C/c4ccncc4)ncnc32)c1` [GW784752X], 16 nM corresponded to half-maximal inhibition in test [4] (IC50).
Compound `Ic1cccc(CSc2nnc(-c3ccncc3)o2)c1` yielded an IC50 in test [2] greater than 10000 nM.
In the case of `Nc1nc(NCCNc2ncc(-c3ncc[nH]3)c(-c3ccc(Cl)cc3Cl)n2)ccc1[N+](=O)[O-]`, the half-inhibitory concentration (IC50) in test [7] was 0.65 nM; in test [2], 3700 nM.
In turn, `Cn1cc(C2=C(c3cn(CCCSC(=N)N)c4ccccc34)C(=O)NC2=O)c2ccccc21` [BISINDOLYLMALEIMIDE IX] yielded a concentration for half-maximal inhibition (IC50) in test [4] of 3 nM.
Take `Nc1cccc(-c2cc3c(Oc4cccc(O)c4)ncnc3[nH]2)c1`: the half-maximal inhibitory concentration (IC50) in test [4] came to 30 nM.

The term IC50 denotes the midpoint of a concentration-inhibition curve. In general, inhibition refers to how much of the control response was suppressed. Read a low inhibition as little suppression.
